Laboratory results from patent publication US10160747B2, “Compounds and methods for kinase modulation, and indications therefor” (Plexxikon Inc., priority 2016, dated 2018).

Experiments:
Type in all cases: biochemical
c-KIT = target: T1, c-KIT (Homo sapiens, UniProt P10721); assay: c-KIT recombinant enzyme kinase assay (AlphaScreen); details: 100 ATP, 8 pt
T1 construct: purchased Millipore 14-559K
Procedure, shortened: (§1)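 Recombinant kinase phosphorylates 30 nM biotinylated poly(Glu4-Tyr) peptide; ATP is 10 μM for FLT3-ITD and FLT3-D835Y, 100 μM for c-KIT. Phosphotyrosine detected by AlphaScreen (streptavidin donor, PY20 acceptor beads, 10 μg/mL), 580 nm signal after 680 nm excitation; IC50 from signal decrease.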

CSF1R = CSF1R (Homo sapiens, UniProt P07333); assay: CSF1R 100 ATP 8 pt kinase assay (Table 6)
Sequence of CSF1R (P07333 20-972, species assumed): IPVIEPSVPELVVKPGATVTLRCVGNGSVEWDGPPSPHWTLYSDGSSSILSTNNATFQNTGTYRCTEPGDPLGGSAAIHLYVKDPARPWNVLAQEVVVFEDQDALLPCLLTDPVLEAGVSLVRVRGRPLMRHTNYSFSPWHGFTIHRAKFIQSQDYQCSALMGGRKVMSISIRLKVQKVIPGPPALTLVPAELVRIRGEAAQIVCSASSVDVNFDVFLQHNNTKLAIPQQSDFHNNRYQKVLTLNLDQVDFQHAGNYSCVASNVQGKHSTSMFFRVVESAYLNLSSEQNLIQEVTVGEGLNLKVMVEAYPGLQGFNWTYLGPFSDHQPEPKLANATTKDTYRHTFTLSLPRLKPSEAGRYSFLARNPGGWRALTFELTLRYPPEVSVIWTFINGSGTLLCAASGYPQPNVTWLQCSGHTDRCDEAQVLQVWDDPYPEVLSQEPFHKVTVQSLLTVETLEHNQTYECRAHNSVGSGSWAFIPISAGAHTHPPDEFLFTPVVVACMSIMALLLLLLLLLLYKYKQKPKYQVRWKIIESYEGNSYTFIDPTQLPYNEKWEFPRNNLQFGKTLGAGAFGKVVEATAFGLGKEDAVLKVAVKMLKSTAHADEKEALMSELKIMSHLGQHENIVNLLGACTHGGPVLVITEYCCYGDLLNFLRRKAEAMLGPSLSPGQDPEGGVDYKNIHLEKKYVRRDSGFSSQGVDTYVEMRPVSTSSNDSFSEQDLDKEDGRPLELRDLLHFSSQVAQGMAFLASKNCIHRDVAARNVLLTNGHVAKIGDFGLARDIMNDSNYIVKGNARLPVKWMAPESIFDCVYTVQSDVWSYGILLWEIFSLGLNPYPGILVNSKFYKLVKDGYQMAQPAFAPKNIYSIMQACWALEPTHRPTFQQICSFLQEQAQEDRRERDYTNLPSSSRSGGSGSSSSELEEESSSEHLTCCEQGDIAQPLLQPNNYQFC
Source text: The following Table 6 provides data indicating FLT3 ITD, D835Y and F691L; c-KIT and CSF1R biochemical and/or cell inhibitory activity for exemplary compounds as described herein.

FLT3-D835Y = target: T2, FLT3-D835Y (Homo sapiens, UniProt P36888, D835Y); assay: FLT3-D835Y recombinant enzyme kinase assay (AlphaScreen); details: 8 pt, GMean
T2 construct: purchased Invitrogen PV3967
T2 sequence (P36888 27-993 D835Y): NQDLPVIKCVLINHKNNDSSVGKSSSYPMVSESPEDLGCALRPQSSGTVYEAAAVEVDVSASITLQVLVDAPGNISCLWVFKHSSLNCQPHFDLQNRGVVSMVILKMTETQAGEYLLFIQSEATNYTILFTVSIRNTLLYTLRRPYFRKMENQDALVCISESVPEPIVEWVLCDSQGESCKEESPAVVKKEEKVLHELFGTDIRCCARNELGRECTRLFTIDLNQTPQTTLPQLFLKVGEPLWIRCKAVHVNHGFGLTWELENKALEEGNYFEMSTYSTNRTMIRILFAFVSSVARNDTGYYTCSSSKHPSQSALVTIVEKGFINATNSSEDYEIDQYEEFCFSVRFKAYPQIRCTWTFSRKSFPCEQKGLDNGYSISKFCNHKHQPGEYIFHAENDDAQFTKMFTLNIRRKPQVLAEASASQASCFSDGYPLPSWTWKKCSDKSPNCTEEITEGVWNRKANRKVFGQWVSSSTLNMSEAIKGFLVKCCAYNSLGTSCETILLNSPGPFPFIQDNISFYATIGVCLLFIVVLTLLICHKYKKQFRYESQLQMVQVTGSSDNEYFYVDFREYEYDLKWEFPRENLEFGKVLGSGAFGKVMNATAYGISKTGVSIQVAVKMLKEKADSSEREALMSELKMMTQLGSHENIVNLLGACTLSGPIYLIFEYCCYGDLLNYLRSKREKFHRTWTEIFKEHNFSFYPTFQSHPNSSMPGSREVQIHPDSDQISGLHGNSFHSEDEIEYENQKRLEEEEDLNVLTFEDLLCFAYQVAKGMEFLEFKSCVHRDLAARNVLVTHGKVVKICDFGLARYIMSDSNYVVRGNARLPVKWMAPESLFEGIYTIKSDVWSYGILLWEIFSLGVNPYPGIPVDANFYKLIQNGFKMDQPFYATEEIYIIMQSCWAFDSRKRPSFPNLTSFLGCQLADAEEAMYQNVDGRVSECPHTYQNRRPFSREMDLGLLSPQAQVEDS
Procedure, shortened: as §1

T1 sequence (P10721 26-976): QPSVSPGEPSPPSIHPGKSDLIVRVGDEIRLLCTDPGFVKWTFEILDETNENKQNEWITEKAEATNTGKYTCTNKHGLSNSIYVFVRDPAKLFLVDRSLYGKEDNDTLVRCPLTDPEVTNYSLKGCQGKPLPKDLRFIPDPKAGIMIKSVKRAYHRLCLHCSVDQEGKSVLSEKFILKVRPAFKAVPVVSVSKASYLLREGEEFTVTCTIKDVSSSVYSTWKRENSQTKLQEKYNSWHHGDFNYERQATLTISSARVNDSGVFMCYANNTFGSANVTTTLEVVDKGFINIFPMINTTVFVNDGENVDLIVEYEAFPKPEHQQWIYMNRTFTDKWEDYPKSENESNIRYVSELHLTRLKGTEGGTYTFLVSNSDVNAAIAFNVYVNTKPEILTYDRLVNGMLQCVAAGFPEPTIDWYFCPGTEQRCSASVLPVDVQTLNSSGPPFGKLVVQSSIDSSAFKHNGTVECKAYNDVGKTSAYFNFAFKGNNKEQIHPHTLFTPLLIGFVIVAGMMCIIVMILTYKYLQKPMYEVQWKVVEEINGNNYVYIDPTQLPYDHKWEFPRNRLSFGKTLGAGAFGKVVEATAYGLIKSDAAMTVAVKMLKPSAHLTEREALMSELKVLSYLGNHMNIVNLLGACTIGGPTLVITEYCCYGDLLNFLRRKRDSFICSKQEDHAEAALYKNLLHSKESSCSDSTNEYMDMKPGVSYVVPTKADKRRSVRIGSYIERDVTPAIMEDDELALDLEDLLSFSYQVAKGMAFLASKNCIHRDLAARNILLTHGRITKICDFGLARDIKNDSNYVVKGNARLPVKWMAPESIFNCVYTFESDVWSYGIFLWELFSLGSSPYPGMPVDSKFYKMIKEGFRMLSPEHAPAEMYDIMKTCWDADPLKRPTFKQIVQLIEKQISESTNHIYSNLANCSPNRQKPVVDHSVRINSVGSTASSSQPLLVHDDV

| IC50 (c-KIT) | IC50 (CSF1R) | IC50 (FLT3-D835Y) | Compound |
| --- | --- | --- | --- |
| 0.0001 to 10 µM | 0.0001 to 10 µM | 0.0001 to 10 µM | COc1n[nH]c2ncc(-c3ccc(CC(=O)Nc4cnc(C)c(C(F)(F)F)c4)cc3)cc12 [Compound P-0218, 2-[4-(3-methoxy-1H-pyrazolo[3,4-b]pyridin-5-yl)phenyl]-N-[6-methyl-5-(trifluoromethyl)-3-pyridyl]acetamide] |
| 0.0001 to 10 µM | 0.0001 to 10 µM | 0.0001 to 10 µM | COc1ncc(NC(=O)Cc2ccc(-c3cnc4[nH]nc(OC)c4c3)cc2)cc1C(F)(F)F [Compound P-0212, 2-[4-(3-methoxy-1H-pyrazolo[3,4-b]pyridin-5-yl)phenyl]-N-[6-methoxy-5-(trifluoromethyl)-3-pyridyl]acetamide] |
| 0.0001 to 10 µM | 0.0001 to 10 µM | 0.0001 to 10 µM | CCOc1n[nH]c2ncc(-c3ccc(CC(=O)Nc4cnc(C)c(C(F)(F)F)c4)cc3)cc12 [Compound P-0217, 2-[4-(3-ethoxy-1H-pyrazolo[3,4-b]pyridin-5-yl)phenyl]-N-[6-methyl-5-(trifluoromethyl)-3-pyridyl]acetamide] |

The next lines start with the molecule.

| Compound | IC50 (c-KIT) | IC50 (CSF1R) | IC50 (FLT3-D835Y) |
| --- | --- | --- | --- |
| COc1ncc(NC(=O)Cc2ccc(-c3cnc4[nH]nc(N)c4c3)cc2)cc1C(F)(F)F [Compound P-0216, 2-(4-(3-amino-1H-pyrazolo[3,4-b]pyridin-5-yl)phenyl)-N-(6-methoxy-5-(trifluoromethyl)pyridin-3-yl)acetamide] | 0.0001 to 10 µM | 0.0001 to 10 µM | 0.0001 to 10 µM |
| COc1ncc(NC(=O)Cc2ccc(-c3cnc4[nH]nc(NC(=O)C(F)(F)F)c4c3)cc2)cc1C(F)(F)F [Compound P-0215, 2,2,2-trifluoro-N-[5-[4-[2-[[6-methoxy-5-(trifluoromethyl)-3-pyridyl]amino]-2-oxo-ethyl]phenyl]-1H-pyrazolo[3,4-b]pyridin-3-yl]acetamide] | 0.0001 to 10 µM | 0.0001 to 10 µM | 0.0001 to 10 µM |
| COc1ncc(NC(=O)Cc2ccc(-c3cnc4[nH]nc(Cl)c4c3)cc2)cc1C(F)(F)F [Compound P-0230, 2-[4-(3-chloro-1H-pyrazolo[3,4-b]pyridin-5-yl)phenyl]-N-[6-methoxy-5-(trifluoromethyl)-3-pyridyl]acetamide] | 0.0001 to 10 µM | 0.0001 to 10 µM | 0.0001 to 10 µM |
| CCOc1n[nH]c2ncc(-c3ccc(CC(=O)Nc4cnc(OC)c(C(F)(F)F)c4)cc3)cc12 [Compound P-0213, 2-(4-(3-ethoxy-1H-pyrazolo[3,4-b]pyridin-5-yl)phenyl)-N-(6-methoxy-5-(trifluoromethyl)pyridin-3-yl)acetamide] | 0.0001 to 10 µM | 0.0001 to 10 µM | 0.0001 to 10 µM |
